Measured values published in article PMC6156427, “Characterization of NGFFYamide Signaling in Starfish Reveals Roles in Regulation of Feeding Behavior and Locomotory Systems” (Frontiers in Endocrinology, 2018).
No end group written: not given here.

Tests used:
[1] = tested on: tube foot preparations from the sea urchin E. esculentus; details: Echinus esculentus; ref [35]; cited from earlier work
Excerpt: (§1) Having analyzed both the anatomical expression pattern and bioactivity of NGFFYamide in the starfish A. rubens, it is of interest to make comparisons with what is known about the physiological roles of NG peptides in other echinoderms. The first NG peptide to be identified in an echinoderm was NGIWYamide, which was isolated from the sea cucumber A. japonicus on account of its effect in causing contraction of longitudinal body wall muscles in this species ([42]).

[2] = tested on: esophagus preparations from the sea urchin E. esculentus; details: Echinus esculentus; ref [35]; cited from earlier work
Excerpt: as §1

[3] = tested on: NPS/CCAP-type receptor in the sea urchin S. purpuratus; details: ref [8]; cited from earlier work
Excerpt: Evidence that NG peptides are orthologs of vertebrate NPS-type neuropeptides was provided by analysis of the sequence of the NG peptide precursor in the cephalochordate B. floridae, which comprises two copies of a peptide (SFRNGVG) that is identical to the N-terminal region of NPS ([…]) ([34]). However, definitive proof was provided with the discovery that an NPS/CCAP-type receptor in the sea urchin S. purpuratus is activated by the neuropeptide NGFFFamide ([8]). Thus, a bilaterian neuropeptide family comprising NPS in vertebrates, NG peptides in invertebrate deuterostomes and ...

[4] = tested on: tube foot preparations from A. rubens; assay: in vitro pharmacology, tube foot preparations; set-up: species or system Asterias rubens; details: read-out: half maximal response concentration (EC50), tonic contraction; tonic contraction of tube feet, 10^−9-10^−6 M; six measurements; 11°C; four-parameter curve
Experimental: Here, NGFFYamide was tested in vitro to investigate its effect on apical muscle and tube foot preparations from A. rubens, using the same methods reported previously when testing other neuropeptides ([53], [54], [56]). Briefly, the apical muscle was dissected from the aboral body wall of starfish arms and cut into segments approximately 1 cm in length and cotton ligatures were tied at each end. Tube foot preparations were obtained by dissecting from starfish arms a small square-shaped piece of ambulacral body wall containing a single tube foot podium and its associated ampullae. […] A relaxant effect of NGFFYamide on apical muscle preparations was expressed as a percentage reversal of the maximal contraction induced by 10^−6 M ACh. […] For phasic contractions, peak amplitude and frequency were quantified over a 5-min recording period and expressed as mean amplitude and mean peaks/minute, respectively. For in vitro characterization of the effects of NGFFYamide on tube foot preparations, a concentration-response curve was fitted with a four-parameter curve and the EC50 value was calculated based on six measurements. The in vitro effect of NGFFYamide on basal tone was analyzed by one-way ANOVA using Bonferroni's multiple comparisons post-hoc test. […]

intestine preparations = details: A. japonicus; ref [43]; cited from earlier work
Excerpt: as §1

[5] = tested on: oocyte maturation and spawning; details: A. japonicus; ref [44]; cited from earlier work
Excerpt: as §1

[6] = tested on: body wall mutable collagenous tissue; details: A. japonicus; ref [64]; cited from earlier work
Excerpt: as §1

tentacle preparations = details: A. japonicus; ref [43]; cited from earlier work
Excerpt: as §1

[7] = tested on: longitudinal body wall muscle; details: A. japonicus; ref [43]; cited from earlier work
Excerpt: as §1

rodents = details: ref [76]; cited from earlier work
Excerpt: (§2) Thus, nothing was known about its physiological roles when NPS was first identified. […] Furthermore, evidence that the anxiolytic effect ...

mammals = details: ref [15], [18], [72]–[75]; cited from earlier work
Excerpt: as §2

mice = details: ref [9], cited from earlier work
Excerpt: as §2

[8] = tested on: "orphan" G-protein coupled receptor GPR154; details: ref [65]; cited from earlier work
Excerpt: as §2

rats = details: ref [9]; cited from earlier work
Excerpt: as §2

gut = details: cockroaches; ref [32], [83]; cited from earlier work
Excerpt: (§3) Furthermore, there is substantial evidence that CCAP is one of several neuropeptides that regulate shedding of the exoskeleton (ecdysis) in arthropods. Thus, a dramatic increase in circulating levels of CCAP has been observed in two crustacean species during ecdysis ([26]).

crustaceans = details: ref [25]; cited from earlier work
Excerpt: as §3

cockroach P. americana = details: ref [33]; cited from earlier work
Excerpt: as §3

moth Manduca sexta = details: ref [28], [78], [79]; cited from earlier work
Excerpt: as §3

oviduct = details: Locusta migratoria; ref [82]; cited from earlier work
Excerpt: as §3

[9] = tested on: tube foot preparations from A. rubens; details: ACh 10^−6 M; ref [54], [57]; cited from earlier work
Experimental: Here, NGFFYamide was tested in vitro to investigate its effect on apical muscle and tube foot preparations from A. rubens, using the same methods reported previously when testing other neuropeptides ([53], [54], [56]). Briefly, the apical muscle was dissected from the aboral body wall of starfish arms and cut into segments approximately 1 cm in length and cotton ligatures were tied at each end. […] Thus, application of NGFFYamide triggered phasic contractions of tube feet that were superimposed upon an increase in basal tone. Furthermore, there was concentration-dependency in the effect of NGFFYamide on both the amplitude and the frequency of the phasic contractions. This action of NGFFYamide on tube feet is interesting because it is the first neuropeptide that we have ...

[10] = tested on: apical muscle preparations from A. rubens; details: ACh 10^−6 M; ref [54], [57]; cited from earlier work
Experimental: Investigation of the physiological roles of NG peptides in echinoderms was advanced most recently with the discovery of the precursor of the NG peptide NGFFYamide (NGFFY-NH2) in the starfish A. rubens. Research on neuropeptide systems in this species led to the discovery of the first echinoderm neuropeptides to be sequenced—the SALMFamide neuropeptides S1 and S2 ([45]). […] Here, NGFFYamide was tested in vitro to investigate its effect on apical muscle and tube foot preparations from A. rubens, using the same methods reported previously when testing other neuropeptides ([53], [54], [56]). Briefly, the apical muscle was dissected from the aboral body wall of starfish arms and cut into segments approximately 1 cm in length and cotton ligatures were tied at each end. […] Thus, NGFFYamide precursor-expressing cells are present in the coelomic lining of the apical muscle, a thickening of the longitudinally orientated body wall muscle layer located in an aboral and sagittal position in each arm.

Compound: NGFFF-NH2 [NGFFFamide]
- contraction of tube foot preparations [1]: contraction
- contraction of esophagus preparations [2]: contraction
- activation of NPS/CCAP-type receptor [3]: activated

Compound: NGFFY-NH2 [NGFFYamide]
- EC50 [4]: 14 nM

Compound: NGIWYamide
- spontaneous phasic contractions of intestine preparations (intestine preparations): inhibition
- oocyte maturation and spawning [5]: induction of oocyte maturation and spawning
- effect on body wall mutable collagenous tissue [6]: stiffening
- contraction of tentacle preparations (tentacle preparations): tonic contraction
- contraction of longitudinal body wall muscle [7]: tonic contraction

Compound: SFRNGVGTGMKKTSFQRAKS [NPS, 20-residue neuropeptide first discovered in rodents]
- food intake (increase, one study) (rodents): increase food intake
- food intake (inhibition) (mammals): inhibition of food intake
- anxiolytic-like effects (mice; mice exposed to stressful conditions): anxiolytic-like effects
- locomotor activity (mice): increases locomotor activity
- ligand of GPR154 [8]: endogenous ligand
- wakefulness (rats): increases wakefulness

Compound: PFCNAFTGC-NH2 [CCAP, 9-residue neuropeptide first discovered in the crustacean Carcinus maenas]
- gut contraction and secretion of digestive enzymes (gut): stimulation of gut contraction and secretion of digestive enzymes
- cardioexcitatory effect (crustaceans): cardioexcitatory
- locomotor activity (cockroach P. americana): inhibition of locomotor activity
- ecdysis motor program (moth Manduca sexta): activates an ecdysis motor program
- oviduct contractions (oviduct): induction of oviduct contractions

Compound: CC(=O)OCC[N+](C)(C)C [acetylcholine]
- contractant of starfish tube feet [9]: known contractant
- contractant of starfish apical muscle [10]: known contractant
